The source of these data is ChEMBL document CHEMBL1124830, “Synthesis, brain uptake, and pharmacological properties of a glyceryl lipid containing GABA and the GABA-T inhibitor gamma-vinyl-GABA” (J Med Chem, 1990).

A short description of data set [1]: Partition coefficient of the compound. Type of data set: ADME. Conditions: octanol/water.
Data set [2] in a line: Brain penetration index calculated as ([Brain]/[Liver])x100 @ 5 min after sc administration in mice at 3-39 mg/kg. The format is functional.
Data set [3] is filed under the species Mus musculus. Particulars: 3-39 mg/kg.
The species entered for data set [4] is Mus musculus. Particulars: Liver.
For data set [5], the species on record is Mus musculus. Nature of the data set: Dose required to produce a 50% reduction in general motor activity after injection in mice. Type of data set: functional.
Data set [6] has as its system Mus musculus. Nature of the data set: Concentration of brain in mice after sc administration at 33 mg/kg. The format is functional, organism-based. Details: dose 33 mg/kg.
Another data set is filed under the species Rattus norvegicus. Kind of data set: Inhibitory concentration that suppress the CA1 population spike in rat hippocampus slices. Type of data set: functional, organism-based.
Data set [7] is described as follows: Brain penetration index calculated as ([Brain]/[Liver])x100 @ 5 min after sc administration in mice at 33 mg/kg. The format is functional. Conditions: route subcutaneous.
Data set [8] concerns Mus musculus. Kind of data set: Concentration of liver in mice after sc administration at 33 mg/kg. The format is functional, organism-based. Details: dose 33 mg/kg.

Compound `NCCCC(=O)O` [GAMMA-AMINOBUTYRIC ACID] yielded a Partition coefficient in data set [1] of 0.004. In addition, the BPI in [2] was 1. Also, the figures for the Concentration (nM (g of tissue)-1) in the data set filed under Mus musculus [3] and in the data set listed under Mus musculus [4] were 0.04 and 4.17, respectively.
With `C=CC(N)CCC(=O)O` (stereo unspecified) [VIGABATRIN], the Dose in the data set listed under Mus musculus [5] was 9000 µM/kg.
As a reminder, the IC50 is the concentration needed to halve the response being measured. For `C=CC(N)CCC(=O)OCC(COC(=O)CCCCCCC/C=C\C/C=C\C/C=C\CC)OC(=O)CCCN` (stereo unspecified), the Partition coefficient in [1] turned out to be 1.76. Further, the Concentration (nM (g of tissue)-1) was 8.34 with Mus musculus [6] and 8.94 in the data set with Mus musculus [8]. Further, the Dose in the data set listed under Mus musculus [5] was 25 µM/kg. Besides, inhibition in the data set listed under Rattus norvegicus was half-maximal at 800 µM (IC50). Also, the BPI in data set [7] was 97.
